From PubChem BioAssay AID248 (DTP/NCI, 2004)
“And” between values parts separate entries of the source, which are not always exact repeats. Identical values can stand only once. Toxic doses and inconclusive results are not listed.

System: L1210 leukemia ip in BDF1 mice, survival T/C
Assay: NCI In Vivo Anticancer Drug Screen. Data for tumor model L1210 Leukemia (intraperitoneal) in B6D2F1 (BDF1) mice
Settings: endpoint: mean survival time, higher = longer survival
In short: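 Tumor cells were implanted, animals were treated, and survival was followed. The result divides the treated measurement by the vehicle-control measurement.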

[1] = dose: 100.0 mg/kg/injection, schedule: Q04DX003 (ip), vehicle: Klucel (hydroxypropylcellulose) (HPC)
[2] = dose: 200.0 mg/kg/injection, schedule: Q04DX003 (ip), vehicle: Klucel (hydroxypropylcellulose) (HPC)
[3] = dose: 50.0 mg/kg/injection, schedule: Q01DX009 (ip), vehicle: saline with Tween-80
[4] = dose: 100.0 mg/kg/injection, schedule: Q01DX009 (ip), vehicle: saline with Tween-80
[5] = dose: 25.0 mg/kg/injection, schedule: Q04DX003 (ip), vehicle: saline
[6] = dose: 50.0 mg/kg/injection, schedule: Q04DX003 (ip), vehicle: saline
[7] = dose: 100.0 mg/kg/injection, schedule: Q04DX002 (ip), vehicle: Klucel (hydroxypropylcellulose) (HPC)
[8] = dose: 200.0 mg/kg/injection, schedule: Q04DX002 (ip), vehicle: Klucel (hydroxypropylcellulose) (HPC)
[9] = dose: 12.5 mg/kg/injection, schedule: Q01DX009 (ip), vehicle: saline with Tween-80
[10] = dose: 25.0 mg/kg/injection, schedule: Q01DX009 (ip), vehicle: saline with Tween-80
[11] = dose: 50.0 mg/kg/injection, schedule: Q04DX002 (ip), vehicle: Klucel (hydroxypropylcellulose) (HPC)
[12] = dose: 100.0 mg/kg/injection, schedule: Q01DX001 (ip), vehicle: saline
[13] = dose: 200.0 mg/kg/injection, schedule: Q01DX001 (ip), vehicle: saline
[14] = dose: 50.0 mg/kg/injection, schedule: Q01DX009 (ip), vehicle: saline
[15] = dose: 100.0 mg/kg/injection, schedule: Q01DX009 (ip), vehicle: saline
[16] = dose: 100.0 mg/kg/injection, schedule: Q04DX003 (ip), vehicle: saline

## O=C1CCC(=O)C2CC=CCC12 (stereo unspecified)
dose: 100.0 mg/kg/injection, schedule: Q## X003 (ip), vehicle: saline
  T/C: 101 % of control
dose: 200.0 mg/kg/injection, schedule: Q## X003 (ip), vehicle: saline
  T/C: 108 % of control
dose: 400.0 mg/kg/injection, schedule: Q## X003 (ip), vehicle: saline
  T/C: 98 % of control

## O=COCC1CCC(COC=O)CC1 (stereo unspecified)
dose: 222.0 mg/kg/injection, schedule: Q01DX Z (ip), vehicle: methylcellulose (MC)
  T/C: 94 % of control
dose: 333.0 mg/kg/injection, schedule: Q01DX Z (ip), vehicle: methylcellulose (MC)
  T/C: 94 % of control
dose: 500.0 mg/kg/injection, schedule: Q01DX Z (ip), vehicle: methylcellulose (MC)
  T/C: 105 % of control

## O=C(O)/C=C/c1ccc(C(NC(=O)N2C(=O)C=CC2=O)NC(=O)N2C(=O)C=CC2=O)cc1
dose: 100.0 mg/kg/injection, schedule: Q01DX001 (ip), vehicle: carboxymethylcellulose (CMC)
  T/C: 100 % of control
dose: 200.0 mg/kg/injection, schedule: Q01DX001 (ip), vehicle: carboxymethylcellulose (CMC)
  T/C: 95 % of control
dose: 400.0 mg/kg/injection, schedule: Q01DX001 (ip), vehicle: carboxymethylcellulose (CMC)
  T/C: 97 % of control

## N#Cc1sc2ccccc2c1O
dose: 50.0 mg/kg/injection, schedule: Q04DX003 (ip), vehicle: Klucel (hydroxypropylcellulose) (HPC)
  T/C: 106 % of control
[1]
  T/C: 97 % of control
[2]
  T/C: 95 % of control

## O=[N+]([O-])c1cccc(N(CCF)CCF)c1
dose: 5.0 mg/kg/injection, schedule: Q01DX001 (ip), vehicle: carboxymethylcellulose (CMC)
  T/C: 103 % of control
dose: 10.0 mg/kg/injection, schedule: Q01DX001 (ip), vehicle: carboxymethylcellulose (CMC)
  T/C: 103 % of control
dose: 20.0 mg/kg/injection, schedule: Q01DX001 (ip), vehicle: carboxymethylcellulose (CMC)
  T/C: 112 % of control

## CCCCCCCCCCCCCCCC1=NN(c2ccccc2)C(=O)C1N=Nc1ccccc1 (stereo unspecified)
[1]
  T/C: 102 % of control
[2]
  T/C: 98 % of control
dose: 400.0 mg/kg/injection, schedule: Q04DX003 (ip), vehicle: Klucel (hydroxypropylcellulose) (HPC)
  T/C: 94 % of control

## CCNC1CCCCC1
[3]
  T/C: 104 % of control
[4]
  T/C: 107 % of control

## Oc1ccccc1O.[O-]c1ccccc1[O-].[O-]c1ccccc1[O-].[O]=[V+2]
dose: 4.0 mg/kg/injection, schedule: Q01DX015 (ip), vehicle: saline
  T/C: 100 % of control
dose: 8.0 mg/kg/injection, schedule: Q01DX015 (ip), vehicle: saline
  T/C: 94 % of control
dose: 12.5 mg/kg/injection, schedule: Q04DX003 (ip), vehicle: saline
  T/C: 111 % of control
dose: 16.0 mg/kg/injection, schedule: Q01DX015 (ip), vehicle: saline
  T/C: 96 % of control
dose: 18.75 mg/kg/injection, schedule: Q01DX009 (ip), vehicle: saline
  T/C: 90 % of control
[5]
  T/C: 102 % of control
dose: 32.0 mg/kg/injection, schedule: Q01DX015 (ip), vehicle: saline
  T/C: 102 % of control
dose: 37.5 mg/kg/injection, schedule: Q01DX009 (ip), vehicle: saline
  T/C: 101 % of control
[6]
  T/C: 100 % of control
dose: 75.0 mg/kg/injection, schedule: Q04DX003 (ip), vehicle: saline
  T/C: 97 % of control

## CC12CCC3c4ccc(Oc5ccccc5N)cc4CCC3C1CCC2=O (stereo unspecified)
dose: 100.0 mg/kg/injection, schedule: Q01DX001 (sc), vehicle: steriod suspending solution
  T/C: 101 % of control
dose: 200.0 mg/kg/injection, schedule: Q01DX001 (sc), vehicle: steriod suspending solution
  T/C: 95 % of control
dose: 400.0 mg/kg/injection, schedule: Q01DX001 (sc), vehicle: steriod suspending solution
  T/C: 89 % of control

## COc1ccc(C2Nc3ccccc3NC3CC(C)(C)CC(=O)C32)cc1 (stereo unspecified)
[7]
  T/C: 120 % of control
[8]
  T/C: 98 % of control
dose: 400.0 mg/kg/injection, schedule: Q04DX002 (ip), vehicle: Klucel (hydroxypropylcellulose) (HPC)
  T/C: 109 % of control

## Clc1cc(Cl)c(C[N+]23CN4CN(CN(C4)C2)C3)cc1Cl
[9]
  T/C: 102 % of control
[10]
  T/C: 104 % of control
[3]
  T/C: 102 % of control
[4]
  T/C: 120 % of control
dose: 200.0 mg/kg/injection, schedule: Q01DX009 (ip), vehicle: saline with Tween-80
  T/C: 121 % of control

## Nc1nc(N)c(-c2ccc(Cl)cc2)c(CN2C(=O)c3ccccc3C2=O)n1
dose: 75.0 mg/kg/injection, schedule: Q01DX001 (ip), vehicle: Klucel (hydroxypropylcellulose) (HPC)
  T/C: 97 % of control
dose: 150.0 mg/kg/injection, schedule: Q01DX001 (ip), vehicle: Klucel (hydroxypropylcellulose) (HPC)
  T/C: 92 % of control
dose: 300.0 mg/kg/injection, schedule: Q01DX001 (ip), vehicle: Klucel (hydroxypropylcellulose) (HPC)
  T/C: 92 % of control

## CN(Cc1ccccc1)N=Nc1ccccc1
[11]
  T/C: 103 % of control
[7]
  T/C: 95 % of control
[8]
  T/C: 116 % of control

## Cc1cccc(Cl)c1N=C=O
[12]
  T/C: 102 % of control
[13]
  T/C: 102 % of control

## Nc1nc(N)c2c(Cl)c(CNc3ccc(Cl)c(Cl)c3)ccc2n1
dose: 6.25 mg/kg/injection, schedule: Q01DX009 (ip), vehicle: water
  T/C: 124 % of control
[9]
  T/C: 158 % of control
[3]
  T/C: 119 % of control
dose: 50.0 mg/kg/injection, schedule: Q01DX009 (ip), vehicle: water
  T/C: 93 % of control and 110 % of control
dose: 50.0 mg/kg/injection, schedule: Q04DX003 (ip), vehicle: water
  T/C: 107 % of control
[4]
  T/C: 91 % of control
dose: 100.0 mg/kg/injection, schedule: Q01DX009 (ip), vehicle: water
  T/C: 86 % of control
dose: 100.0 mg/kg/injection, schedule: Q04DX003 (ip), vehicle: water
  T/C: 124 % of control
dose: 400.0 mg/kg/injection, schedule: Q04DX003 (ip), vehicle: water
  T/C: 113 % of control
dose: 600.0 mg/kg/injection, schedule: Q04DX003 (ip), vehicle: water
  T/C: 97 % of control

## CC[N+](CC)(CC)CCC[n+]1ccc(/C=N\O)cc1
[5]
  T/C: 100 % of control
[14]
  T/C: 112 % of control
[6]
  T/C: 100 % of control
[15]
  T/C: 102 % of control
[16]
  T/C: 100 % of control and 92 % of control

## CCCC/C(=N\N=C(N)N)c1ccc(F)cc1
dose: 15.0 mg/kg/injection, schedule: Q01DX Z (ip), vehicle: methylcellulose (MC)
  T/C: 104 % of control
dose: 15.0 mg/kg/injection, schedule: Q01DX Z (oral), vehicle: methylcellulose (MC)
  T/C: 94 % of control
dose: 30.0 mg/kg/injection, schedule: Q01DX Z (ip), vehicle: methylcellulose (MC)
  T/C: 93 % of control
dose: 30.0 mg/kg/injection, schedule: Q01DX Z (oral), vehicle: methylcellulose (MC)
  T/C: 94 % of control

## CC(=O)C(C)=P(c1ccccc1)(c1ccccc1)c1ccccc1
dose: 25.0 mg/kg/injection, schedule: Q01DX009 (ip), vehicle: saline
  T/C: 101 % of control
[14]
  T/C: 102 % of control
[15]
  T/C: 96 % of control
[16]
  T/C: 98 % of control
dose: 200.0 mg/kg/injection, schedule: Q04DX003 (ip), vehicle: saline
  T/C: 88 % of control
dose: 400.0 mg/kg/injection, schedule: Q04DX003 (ip), vehicle: saline
  T/C: 88 % of control

## O=C(COc1cccc(Cl)c1)NCc1ccc(NC(=O)c2cccc(S(=O)(=O)F)c2)cc1
dose: 25.0 mg/kg/injection, schedule: Q04DX002 (ip), vehicle: Klucel (hydroxypropylcellulose) (HPC)
  T/C: 111 % of control
[11]
  T/C: 107 % of control
[7]
  T/C: 100 % of control

## O=C1C=CC(=O)N1Cc1ccncc1
[12]
  T/C: 101 % of control
[13]
  T/C: 95 % of control
dose: 400.0 mg/kg/injection, schedule: Q01DX001 (ip), vehicle: saline
  T/C: 95 % of control

## CCCCCCCCC1N(C)CCCN1C
[9]
  T/C: 98 % of control
dose: 25.0 mg/kg/injection, schedule: Q01DX001 (ip), vehicle: saline with Tween-80
  T/C: 105 % of control
[10]
  T/C: 86 % of control
dose: 50.0 mg/kg/injection, schedule: Q01DX001 (ip), vehicle: saline with Tween-80
  T/C: 105 % of control
[3]
  T/C: 98 % of control and 101 % of control
dose: 100.0 mg/kg/injection, schedule: Q01DX001 (ip), vehicle: saline with Tween-80
  T/C: 97 % of control and 101 % of control
